Laboratory results from ChEMBL document CHEMBL1201862, “PubChem BioAssay data set” (2004).
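These data come from cells grown in 96-well plates and exposed to compound for 48 hours at five concentrations. GI50 is the concentration that inhibits growth by half.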 Activity calls are given as the source filed them. Rule as the data show it: active = GI50 up to about 1.1 µM and inactive = higher.

Legend:
Assay in all cases: NCI anticancer screen, dose series, 48 h
HT-29 = system: HT-29
SF-268 = system: SF-268
NCI-H460 = system: NCI-H460
OVCAR-3 = system: OVCAR-3
COLO 205 = system: COLO 205
KM-20L2 = system: KM-20L2
HOP-62 = system: HOP-62
SR = system: SR
A498 = system: A498
HOP-92 = system: HOP-92
SK-OV-3 = system: SK-OV-3
IGROV-1 = system: IGROV-1
SNB-78 = system: SNB-78
SN12C = system: SN12C
TK-10 = system: TK-10
SW-620 = system: SW-620
EKVX = system: EKVX
LOX IMVI = system: LOX IMVI
NCI-H226 = system: NCI-H226
NCI/ADR-RES = system: NCI/ADR-RES

Measured: GI50

CCN(CC)CCCC(C)Nc1cc(-c2ccccc2)nc2cc(OC)ccc12 (stereo not drawn)
inactive: HT-29 1.94 µM | SF-268 12.8 µM | NCI-H460 2.92 µM | OVCAR-3 12.2 µM | COLO 205 2.91 µM | KM-20L2 2.25 µM | HOP-62 5.25 µM | SR 2.71 µM | A498 5.61 µM | HOP-92 2.23 µM | SK-OV-3 16.3 µM | IGROV-1 13.2 µM | SNB-78 3.21 µM

CCOC(=O)COc1cccc2occc(=O)c12
inactive: HT-29 > 100 µM | SN12C > 100 µM | SF-268 > 100 µM | NCI-H460 > 100 µM | OVCAR-3 > 100 µM | COLO 205 > 100 µM | KM-20L2 > 100 µM | HOP-62 > 100 µM | TK-10 > 100 µM | SW-620 > 100 µM | A498 > 100 µM | HOP-92 > 100 µM | SK-OV-3 > 100 µM | IGROV-1 > 100 µM | SNB-78 > 100 µM | EKVX > 100 µM | LOX IMVI > 100 µM

O=C(NC(COC(=O)C(Cc1ccccc1)NC(=O)c1ccccc1)Cc1ccccc1)c1ccccc1 (stereo not drawn)
inactive: HT-29 > 50 µM | SF-268 > 50 µM | NCI-H460 > 50 µM | OVCAR-3 > 50 µM | HOP-62 > 50 µM | TK-10 > 50 µM | SW-620 > 50 µM | SR > 50 µM | A498 > 50 µM | HOP-92 > 50 µM | SK-OV-3 > 50 µM | IGROV-1 > 50 µM | EKVX > 50 µM

CCC(C)(C)n1c(C)nc2c1C(=O)c1ccccc1C2=O
inactive: HT-29 31.6 µM | SN12C 31.5 µM | SF-268 29.6 µM | NCI-H226 40.6 µM | NCI-H460 12.2 µM | OVCAR-3 30.7 µM | COLO 205 17 µM | KM-20L2 38.6 µM | HOP-62 30.5 µM | TK-10 31.8 µM | SW-620 44.7 µM | SR 9.33 µM | SK-OV-3 44.9 µM | IGROV-1 34 µM | SNB-78 46.5 µM | EKVX 34.1 µM | LOX IMVI 19.4 µM

CC1(C)OP(=O)(O)CC1=O
inactive: HT-29 > 100 µM | SN12C > 100 µM | SF-268 > 100 µM | NCI-H226 > 100 µM | NCI-H460 > 100 µM | OVCAR-3 > 100 µM | COLO 205 > 100 µM | HOP-62 > 100 µM | TK-10 > 100 µM | SW-620 > 100 µM | NCI/ADR-RES > 100 µM | SR > 100 µM | A498 > 100 µM | HOP-92 > 100 µM | SK-OV-3 > 100 µM | IGROV-1 > 100 µM | EKVX > 100 µM | LOX IMVI > 100 µM

N#CC1(C#N)C2C=CC(C3CCC=C32)C1(C#N)C#N (stereo not drawn)
inactive: HT-29 > 10 µM | SN12C > 10 µM | SF-268 > 10 µM | NCI-H226 > 10 µM | NCI-H460 > 10 µM | OVCAR-3 > 10 µM | COLO 205 1.94 µM | HOP-62 > 10 µM | TK-10 > 5.7 µM | SW-620 1.77 µM | NCI/ADR-RES > 10 µM | SR 7.4 µM | A498 > 10 µM | HOP-92 > 10 µM | SK-OV-3 > 10 µM | IGROV-1 > 10 µM | EKVX > 10 µM | LOX IMVI > 10 µM

OCC1OC(n2ccc3cnccc32)CC1O (stereo not drawn)
inactive: HT-29 > 100 µM | SN12C > 100 µM | NCI-H226 > 100 µM | NCI-H460 > 100 µM | OVCAR-3 > 100 µM | COLO 205 > 100 µM | HOP-62 > 100 µM | TK-10 > 100 µM | SW-620 > 100 µM | SR > 100 µM | A498 > 100 µM | HOP-92 > 100 µM | SK-OV-3 > 100 µM | IGROV-1 > 100 µM | SNB-78 > 100 µM | EKVX > 100 µM | LOX IMVI > 100 µM

Cc1cn(Cc2cnnn2CC2OC(n3cc(C)c(=O)[nH]c3=O)CC2O)c(=O)[nH]c1=O (stereo not drawn)
inactive: SN12C > 100 µM | SF-268 > 100 µM | NCI-H226 > 100 µM | OVCAR-3 > 100 µM | COLO 205 > 100 µM | HOP-62 > 100 µM | TK-10 > 100 µM | SW-620 > 100 µM | NCI/ADR-RES > 100 µM | A498 > 100 µM | HOP-92 > 100 µM | SK-OV-3 > 100 µM | IGROV-1 > 100 µM | EKVX > 100 µM | LOX IMVI > 100 µM

CN1C(=O)CN=C(c2ccccc2F)c2cc(N=C=S)ccc21
inactive: HT-29 34.2 µM | SN12C 96.2 µM | SF-268 67 µM | NCI-H460 36.6 µM | OVCAR-3 52 µM | HOP-62 > 100 µM | TK-10 37.4 µM | SW-620 53.5 µM | NCI/ADR-RES 43.1 µM | A498 26.8 µM | HOP-92 23.7 µM | SK-OV-3 > 100 µM | IGROV-1 38.7 µM | EKVX > 100 µM | LOX IMVI 41.4 µM
